We go through one compound from patent US20260048155A1, “BIOCOMPATIBLE PARAHYDROGEN HYPERPOLARIZED SOLUTIONS BY PRECIPITATION AND RE-DISSOLUTION” (North Carolina State University, priority 2022, published 2026).

Data set [1] in a line: Re-dissolution (Re-D) SABRE: precipitation with ethyl acetate, re-dissolution in water, phase separation at different magnetic fields. It is filed as physicochemical. On the procedure:
To investigate the precipitation and re-dissolution of HP [1-^13C]pyruvate, a phase separation approach was applied, FIGS. 5A-5B. To this end, the fact that water and EtAc are immiscible was exploited to modify the setup and procedure accordingly. In this approach, the precipitation was performed in the same NMR tube where hyperpolarization took place. 400 μL EtAc were added quickly to the sample consisting of 100 μL of 30 mM HP [1-^13C]pyruvate, right after removing this sample from the 0.4 μT field and releasing the pressure (≈3-4 s). To mix the solution after EtAc addition, further p-H2 bubbling was used at a low flow rate (˜5-10 scc/m, ambient pressure), FIGS. 5A-5B. For re-dissolution, 300 μL water were added directly to the NMR tube with the precipitate-containing solution, and again, gas flow was used to mix and dissolve the pyruvate microcrystals. After mixing the solutions, most of the aqueous phase rapidly separated from the organic phase (≈1 s). Typical precipitation time was tprec≈2 s and water addition time twater≈6 s, where twater consisted of 1 s to add water, plus 4 s to bubble gas, and 1 s to settle the solution, FIGS. 5A-5B (see FIG. 17 for more information). […] Using this protocol, the obtained two-phase samples visibly contained a major fraction of the catalyst in the organic phase (which remained yellowish and turned reddish after exposure to atmosphere, FIG. 15), whereas a clear aqueous solution of total volume of ≈335±10 μL was obtained (as detailed below approximately half of the CH3OH remained in the aqueous phase), FIGS. 14A-14B. The total volumes of the investigated mixtures containing the precipitate were approximately 500 μL (3.9 cm fill height in the NMR tube), and after the addition of water the total fluid volume was ≈800 μL (≈6 cm fill height). During the phase mixing, parts of the sample were lifted by approximately 5 cm by the ascending p-H2 gas bubbles. The sample height in the NMR tube was the decisive factor affecting the choice of solvent volumes to minimize the mixtures from leaving the 1.4 T field of the benchtop NMR spectrometer (approximately 10 cm along the sample tube) as much as possible. […] These limitations are clear shortcomings of the current experimental design and can be remedied in the future with purpose-built hyperpolarization equipment.
This separation approach was investigated at 4 different magnetic fields: (i) Earth's field; (ii) 10 mT; (iii) 0.3 T; and (iv) 1.4 T, FIGS. 6A-6B. More details on the experiment setups are reported in the SI. Re-D SABRE was performed at (i)-(iv), and the samples were then rapidly transferred to the benchtop 1.4 T NMR, such that the aqueous phase was approximately centered in the radiofrequency coil. In case (iv), for which no transfer was needed, a ≈5-s delay was added to the end of the protocol for consistency with the time needed to transfer the samples in (i-iii).
The detection and quantification of hyperpolarization took place at 1.4 T in all cases.
A more rigorous phase mixing protocol was tested, where the bubbling tube was moved up and down rapidly three times for phase mixing during the twater≈6 s mixing time. […] Considering the final volume of the aqueous phase of 335±10 μL and the measured pyruvate concentration of 5.8±0.8 mM (in the diluted Re-D SABRE sample), the detected ^13C signals corresponded to a nuclear polarization of P13C=9±1% or 8±1%, i.e., ε13C of ≈75,000 at 1.4 T, respectively, N=2 samples, FIGS. 7A-8B. […]

The conditions of data set [2]: 30 mM pyruvate, prior SABRE-SHEATH work (background); cited from earlier work.
Data set [3] is described as follows: Precipitation without water addition: 13C polarization of residual dissolved pyruvate in organic phase. The format is physicochemical. As to conditions: for P13C in precipitated sample, no water added / 13C polarization in precipitated sample, no water added: residual dissolved pyruvate in EtAc/CH3OH. The procedure: To investigate the impact of precipitate relaxation in variable magnetic fields during the dissolution process, the Re-D SABRE experiment was repeated, omitting the addition of water after precipitation (i.e., the decay of ^13C HP signal in the dissolved phase of the precipitated samples was measured). […] For (iii), P13C was still much lower compared to the sample that rested at the 1.4 T magnet (setup iv), i.e., P13C=0.08±0.02% and P13C=3.4±0.9%, respectively—this signal is entirely derived from the remaining dissolved pyruvate in solution (2.3±0.6 mM in the 500 μL sample of EtAc and CH3OH, FIG. 17) not from the precipitated micro-crystalline phase. […] This observation is important because it means the Re-D SABRE process can be successfully performed at storage fields as low as 0.3 T. The rapid ^13C T1 of HP [1-^13C]pyruvate in the EtAc fraction at Earth's field, estimated to be <1.3 s, may be caused by the high catalyst: substrate ratio in the EtAc.
Description of the magnets used in the precipitation and relaxation study: The precipitation and phase separation approach was investigated at 4 different magnetic fields: (i) Earth's field; (ii) 10 mT; (iii) 0.3 T; and (iv) 1.4 T. For (i), the samples were positioned in a plastic holder at a defined position in the laboratory at which a magnetic field of ≈40 μT was measured. For (ii), a modified setup of permanent magnets creating a 10 mT magnetic field over a volume of ≈20×10×10 cm^3 was employed. For (iii), a hollow cylindrical magnet (K&J Magnetics, Inc., P/N RY04Y0) was used with a length of 5.1 cm and an inner bore of approximately 6.4 mm diameter in which the NMR tube was positioned. For (iv), the NMR benchtop spectrometer was used, which approximately provides the constant 1.4 T field up to 10 cm above the magnet center.

Take `CC(=O)[13C](=O)O` [[1-^13C]pyruvate]: the “ε13C after Re-D SABRE” value in data set [1] (aqueous phase, at 1.4 T) is “≈ 75,000”. Besides, the “P13C after Re-D SABRE” value in data set [1] (precipitation and re-dissolution at 0.3 T, N=2, aqueous phase) was 4.0±0.8%; in data set [1] (precipitation and re-dissolution at 1.4 T, N=3, aqueous phase) it was 3.6±0.6%; in data set [1] (precipitation and re-dissolution at 10 mT, aqueous phase, detected at 1.4 T), 0.05±0.02%. Also, in data set [1] (precipitation and re-dissolution at Earth's field, detected at 1.4 T), the “HP 13C signal after Re-D SABRE” value is “No HP ^13C signal was observed”. For the same compound, the “P13C in the free state” value in data set [2] is given as 13%. The “P13C in precipitated sample, no water added” value in data set [3] (0.3 T (iii)) is on record as 0.08±0.02%; in data set [3] (1.4 T (iv)) it was 3.4±0.9%. For the same compound, the “13C polarization in precipitated sample, no water added” value in data set [3] (10 mT (ii)) and in data set [3] (Earth's field (i)) was “no measurable ^13C polarization was observed” throughout. The “P13C in (iii) 0.3 T lower than in (iv) 1.4 T” value in data set [3] (dissolved phase in EtAc fraction) is listed as “≈ 40 times”.
